Measurements as given in the supplement of paper PMC4862054.

Assays:
Settings in all cases: incubation time: 72 h
[1] = tested on: Hs578T; assay: normalised viability (% of control), CellTiter-Blue; higher = more viable cells (100 = DMSO, 0 = benzethonium chloride kill control)
Procedure: (§1)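 DSRT, CellTiter-Blue viability, 72 h incubation. Signal is normalised to DMSO and benzethonium chloride controls. Value is the normalised response at dose 1.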

[2] = tested on: HCC1143; assay: as above
Procedure: as §1

[3] = tested on: MFM-223; assay: as above
Procedure: as §1

[4] = tested on: CAL-51; assay: as above
Procedure: as §1

[5] = tested on: HCC1937; assay: as above
Procedure: as §1

[6] = tested on: BT-549; assay: as above
Procedure: as §1

[7] = tested on: MDA-MB-436; assay: as above
Procedure: as §1

[8] = tested on: BT-474; assay: as above
Procedure: as §1

[9] = tested on: HDQ-P1; assay: as above
Procedure: as §1

[10] = tested on: HCC1599; assay: as above
Procedure: as §1

[11] = tested on: CAL-85-1; assay: as above
Procedure: as §1

[12] = tested on: DU-4475; assay: as above
Procedure: as §1

[13] = tested on: Hs578T; assay: drug sensitivity score (DSS), CellTiter-Glo (DSS (AUC-based score)); higher = stronger drug effect (viability inhibition or cytotoxicity); extreme values may be limits of the assay
In short: (§2)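 Breast cancer cell lines were seeded in 20 µl suspension into 384-well plates already holding compound and incubated for 72 h. Each compound was tested at 5 concentrations in 10-fold steps across its own 10,000-fold range. Plates were normalised to 0.1 % DMSO and a positive kill control after CellTox Green and then CellTiter-Glo readings. The area under the fitted dose-response curve served as the basis for the drug sensitivity score.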

[14] = tested on: CAL-148; assay: as above
In short: as §2

[15] = tested on: HCC1143; assay: as above
In short: as §2

[16] = tested on: MFM-223; assay: as above
In short: as §2

[17] = tested on: HCC1937; assay: as above
In short: as §2

[18] = tested on: BT-549; assay: as above
In short: as §2

[19] = tested on: CAL-120; assay: as above
In short: as §2

[20] = tested on: MDA-MB-468; assay: as above
In short: as §2

[21] = tested on: MDA-MB-436; assay: as above
In short: as §2

[22] = tested on: BT-474; assay: as above
In short: as §2

[23] = tested on: MDA-MB-231; assay: as above
In short: as §2

[24] = tested on: HCC1599; assay: as above
In short: as §2

[25] = tested on: CAL-85-1; assay: as above
In short: as §2

[26] = tested on: MCF-10A; assay: as above
In short: as §2

[27] = tested on: DU-4475; assay: as above
In short: as §2

SMILES | normalised viability ([1]; 1 nM) [%] | normalised viability ([2]; 1 nM) [%] | normalised viability ([3]; 1 nM) [%] | normalised viability ([4]; 1 nM) [%] | normalised viability ([5]; 1 nM) [%] | normalised viability ([6]; 1 nM) [%] | normalised viability ([7]; 1 nM) [%] | normalised viability ([8]; 1 nM) [%] | normalised viability ([9]; 1 nM) [%] | normalised viability ([10]; 1 nM) [%] | normalised viability ([11]; 1 nM) [%] | normalised viability ([12]; 1 nM) [%] | drug sensitivity score [13] | drug sensitivity score [14] | drug sensitivity score [15] | drug sensitivity score [16] | drug sensitivity score [17] | drug sensitivity score [18] | drug sensitivity score [19] | drug sensitivity score [20] | drug sensitivity score [21] | drug sensitivity score [22] | drug sensitivity score [23] | drug sensitivity score [24] | drug sensitivity score [25] | drug sensitivity score [26] | drug sensitivity score [27] | normalised viability ([1]; 0.1 nM) [%] | normalised viability ([2]; 0.1 nM) [%] | normalised viability ([3]; 0.1 nM) [%] | normalised viability ([4]; 0.1 nM) [%] | normalised viability ([5]; 0.1 nM) [%] | normalised viability ([6]; 0.1 nM) [%] | normalised viability ([7]; 0.1 nM) [%] | normalised viability ([8]; 0.1 nM) [%] | normalised viability ([9]; 0.1 nM) [%] | normalised viability ([10]; 0.1 nM) [%] | normalised viability ([11]; 0.1 nM) [%] | normalised viability ([12]; 0.1 nM) [%]
Cn1cncc1[C@@](N)(c1ccc(Cl)cc1)c1ccc2c(c1)c(-c1cccc(Cl)c1)cc(=O)n2C [Tipifarnib] | 93.2 | 85.6 | 87.6 | 98.4 | 89 | 120 | 98.5 | 92.1 | 105 | 90.4 | 81.1 | 104 | 4.5 | 7.28 | 0 | 6.28 | 6.28 | 5.49 | 3.76 | 7.6 | 10.2 | 4.08 | 0 | 1.29 | 1.05 | 2.13 | 8.37 |  |  |  |  |  |  |  |  |  |  |  | 
O=C1NC(=O)[C@@H](c2cn3c4c(cccc24)CCC3)[C@@H]1c1c[nH]c2ccccc12 [Tivantinib] |  |  |  |  |  |  |  |  |  |  |  |  | 3.41 | 1.93 | 2.06 | 0 | 0 | 2.94 | 0.91 | 2.74 | 2.69 | 0.701 | 1.39 | 0.956 | 3.66 | 1.72 | 0.839 | 101 | 108 | 85.6 | 106 | 86.3 | 105 | 127 | 128 | 83.2 | 85.6 | 101 | 107
CC[C@]1(O)C[C@H]2CN(CCc3c([nH]c4ccccc34)[C@@](C(=O)OC)(c3cc4c(cc3OC)N(C=O)[C@H]3[C@@](O)(C(=O)OC)[C@H](OC(C)=O)[C@]5(CC)C=CCN6CC[C@]43[C@@H]65)C2)C1 [Vincristine] | 92.6 | 89.6 | 91 | 93.8 | 79.4 | 93.5 | 109 | 41.5 | 95.3 | 93.9 | 91.8 | 88.9 | 16.6 | 12.7 | 13.6 | 11.6 | 7.53 | 21.1 | 11.1 | 23 | 17.1 | 11.5 | 11.5 | 20 | 19.2 | 10.1 | 6.4 | 120 | 80 | 99.7 | 103 | 74.4 | 93.1 | 89.4 | 97.2 | 90 | 119 | 86.5 | 97.6
